{"source": "paper PMC9292024", "about": "(The New Phytologist, 2021)", "key": {"SbMAX1d": {"target": "T1, SbMAX1d (Sorghum bicolor, UniProt A0A809QVY0)", "T1 sequence (A0A809QVY0 1-539)": "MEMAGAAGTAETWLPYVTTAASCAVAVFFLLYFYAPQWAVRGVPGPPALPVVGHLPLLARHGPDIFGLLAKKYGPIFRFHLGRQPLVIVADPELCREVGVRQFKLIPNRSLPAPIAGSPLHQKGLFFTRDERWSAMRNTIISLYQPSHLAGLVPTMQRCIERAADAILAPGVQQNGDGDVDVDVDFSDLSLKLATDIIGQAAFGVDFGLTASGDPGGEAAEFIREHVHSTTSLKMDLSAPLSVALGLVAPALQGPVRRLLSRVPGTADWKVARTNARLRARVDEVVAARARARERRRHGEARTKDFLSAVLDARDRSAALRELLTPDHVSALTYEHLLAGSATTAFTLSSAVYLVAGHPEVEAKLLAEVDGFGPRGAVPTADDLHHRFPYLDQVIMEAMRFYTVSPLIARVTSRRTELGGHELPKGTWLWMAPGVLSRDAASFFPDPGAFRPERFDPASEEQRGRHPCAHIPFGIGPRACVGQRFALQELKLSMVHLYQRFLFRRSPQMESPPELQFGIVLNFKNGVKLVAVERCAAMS", "assay": "yeast microsome conversion, LC-MS/MS", "type": "biochemical", "details": "33 μM rac-CL, 500 μM NADPH, 28°C, 1 h"}, "SbMAX1c": {"target": "T2, SbMAX1c (Sorghum bicolor, UniProt A0A809Q895)", "T2 sequence (A0A809Q895 1-545)": "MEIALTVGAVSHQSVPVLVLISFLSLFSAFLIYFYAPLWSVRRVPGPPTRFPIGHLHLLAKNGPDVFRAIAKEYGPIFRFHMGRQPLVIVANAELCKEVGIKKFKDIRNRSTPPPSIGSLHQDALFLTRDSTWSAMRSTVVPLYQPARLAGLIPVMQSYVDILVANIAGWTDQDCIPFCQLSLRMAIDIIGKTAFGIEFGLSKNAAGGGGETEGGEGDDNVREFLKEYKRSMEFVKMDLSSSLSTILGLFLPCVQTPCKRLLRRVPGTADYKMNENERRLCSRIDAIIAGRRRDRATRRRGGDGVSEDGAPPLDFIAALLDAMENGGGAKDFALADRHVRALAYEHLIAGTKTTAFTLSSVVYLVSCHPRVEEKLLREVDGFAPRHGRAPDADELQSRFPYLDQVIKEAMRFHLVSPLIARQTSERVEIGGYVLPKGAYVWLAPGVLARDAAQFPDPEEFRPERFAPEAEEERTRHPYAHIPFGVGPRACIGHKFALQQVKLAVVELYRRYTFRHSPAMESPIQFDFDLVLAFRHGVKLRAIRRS", "assay": "yeast microsome conversion, LC-MS/MS", "type": "biochemical", "details": "33 μM rac-CL, 500 μM NADPH, 28°C, 1 h"}}, "data": [{"smiles": "CC1=CC(O/C=C(C)\\C=C\\C2=C(C)CCCC2(C)C)OC1=O", "note": "(racemic) [rac‐CL]", "values": [{"measurement": "yeast microsome conversion, LC-MS/MS", "setting": "SbMAX1d", "result": "expressing SbMAX1b, SbMAX1c, or SbMAX1d after incubation with rac‐CL"}, {"measurement": "yeast microsome conversion, LC-MS/MS", "setting": "SbMAX1c", "result": "expressing SbMAX1b, SbMAX1c, or SbMAX1d after incubation with rac‐CL"}]}]}
